Test results: patent publication US20160281050A1, “METHODS FOR TREATING A CULTURE OF HAEMATOCOCCUS PLUVIALIS FOR CONTAMINATION USING SALT AND HYDROGEN PEROXIDE” (HELIAE DEVELOPMENT LLC, priority 2015, published 2016)
Like-named read-outs stand apart in the source and are kept apart here.

Assays:
[1] = tested on: Haematococcus pluvialis (Strain 1) green swimmer cells
Description: (§1) An experiment was conducted to determine if treating a culture of Haematococcus pluvialis with hydrogen peroxide affects the live bacteria count. […] The culture in bioreactor #2210 was treated with 0.33 mL/L hydrogen peroxide 3% stock concentration (calculated concentration of 0.0099 mL/L) every 6 hours for the duration of the culture's green swimmer stage (90 hours). The culture in bioreactor #2230 was not treated to serve as a control for comparison. Samples were taken to assess motility, lysis, and the live bacteria count in the cultures at 11, 34, 52, and 66 hours.

live bacteria = settings: 0.0099 mL/L every 6 hours
Description: as §1

[2] = dosed 0.015 mL/L; carboy and open raceway pond samples
chytrids = test: % chytrid infection in 230 L reactors, salt treatment (Example 12); format: cell-based
Description: This test was done side by side in flasks (0.1 L) and in reactors located in a greenhouse operating in conditions: reactor volume of 230 L; Daily PAR of 20 mol m^−2 d^−1; pH (not measured); and paddlewheel speed of 21 RPM. […] The flask cultures were mixed by shaking at 140 rpm and received 300-400 μmol/m^2 s of photosynthetically active radiation (PAR) in 12 hour light cycles and constant supply of 2.5% CO2. The motility of the culture was monitored by visual observation under a microscope. […] Nine 230 L reactors were also seeded with culture from bioreactor #2410 on the same day as the flasks and brought to 2 ppt concentration of salt. Once motility of the cells was reduced to <10% (day 3 of culture for flasks and day 2 for 230 L reactors) the level of salt was elevated to a point between 4-18 ppt and compared to the culture in two reactors remaining at 2 ppt salt. Flasks and 230 L reactors were monitored for percentage of cell lysis via visual observation under a microscope, culture dry weight (biomass accumulation in g/L), and percentage of chytrid infection via visual observation under a microscope. Carotenoid production, a proxy for determining astaxanthin, was quantified every other day of culture in the 230 L reactors using the UV method.

pure chytrid culture = test: Chytrid tolerance: pure chytrid culture in well plate, observed under a microscope (Examples 13-14); format: cell-based
Description: Experiments were performed to determine chytrid tolerance to bleach, salt, Lufenuron (chemical biocide), and Rid Fungus (blend of natural organic herbs) for evaluation as a treatment for chytrids. A pure chytrid culture in a well plate was treated every 24 hours and observed under a microscope to determine the effect. An untreated culture was used as a control for comparison purposes. Qualitative assessments and quantitative estimates were made by visual observation under a microscope.
Several concentrations of salt and Rid Fungus (blend of organic herbs) were further investigated as a chytrid treatment, as in Example 13. A pure chytrid culture in a well plate was treated and visually observed under a microscope to determine the effect. An untreated culture was used as a control for comparison purposes.

## hydrogen peroxide [H2O2]
[1]
  Motility: above 60%
  lysis: ≤ 15%
Live bacteria; vs untreated control
  reduction in the bacteria count: approximately 1 log
Live bacteria; 11 h
  Live Bacteria Count: 4.8 × 10^5 CFU/mL
Live bacteria; 34 h
  Live Bacteria Count: 5.5 × 10^6 CFU/mL
Live bacteria; 52 h
  Live Bacteria Count: 1.8 × 10^5 CFU/mL
Live bacteria; 66 h
  Live Bacteria Count: 4.5 × 10^5 CFU/mL
[2]
  time to concentration below detectable limits: 120 min
  time to concentration below level expected to be effective against uniflagellates (calculated concentration 0.0075 mL/L): 30 min

## [Cl-].[Na+] [NaCl, sodium chloride]
chytrids; 4 ppt, 2 d
  % Chytrid infection in 230L reactors: 0.00%
chytrids; 4 ppt, 3 d
  % Chytrid infection in 230L reactors: 1.67%
chytrids; 4 ppt, 4 d
  % Chytrid infection in 230L reactors: 0.00%
chytrids; 4 ppt, 5 d
  % Chytrid infection in 230L reactors: 0.00%
chytrids; 4 ppt, 6 d
  % Chytrid infection in 230L reactors: 0.00%
chytrids; 4 ppt, 7 d
  % Chytrid infection in 230L reactors: 1.67%
chytrids; 4 ppt, 8 d
  % Chytrid infection in 230L reactors: 0.00%
chytrids; 4 ppt, 9 d
  % Chytrid infection in 230L reactors: 11.67%
chytrids; 4 ppt, 10 d
  % Chytrid infection in 230L reactors: 30.00%
chytrids; 4 ppt, 11 d
  % Chytrid infection in 230L reactors: 36.67%
chytrids; 4 ppt, 12 d
  % Chytrid infection in 230L reactors: 65.00%
chytrids; 5 ppt, 2 d
  % Chytrid infection in 230L reactors: 1.67%
chytrids; 5 ppt, 3 d
  % Chytrid infection in 230L reactors: 0.00%
chytrids; 5 ppt, 4 d
  % Chytrid infection in 230L reactors: 1.67%
chytrids; 5 ppt, 5 d
  % Chytrid infection in 230L reactors: 0.00%
chytrids; 5 ppt, 6 d
  % Chytrid infection in 230L reactors: 0.00%
chytrids; 5 ppt, 7 d
  % Chytrid infection in 230L reactors: 8.33%
chytrids; 5 ppt, 8 d
  % Chytrid infection in 230L reactors: 0.00%
chytrids; 5 ppt, 9 d
  % Chytrid infection in 230L reactors: 10.00%
chytrids; 5 ppt, 10 d
  % Chytrid infection in 230L reactors: 3.33%
chytrids; 5 ppt, 11 d
  % Chytrid infection in 230L reactors: 13.33%
chytrids; 5 ppt, 12 d
  % Chytrid infection in 230L reactors: 28.33%
chytrids; 6 ppt, 2 d
  % Chytrid infection in 230L reactors: 1.67%
chytrids; 6 ppt, 3 d
  % Chytrid infection in 230L reactors: 0.00%
chytrids; 6 ppt, 4 d
  % Chytrid infection in 230L reactors: 1.67%
chytrids; 6 ppt, 5 d
  % Chytrid infection in 230L reactors: 1.67%
chytrids; 6 ppt, 6 d
  % Chytrid infection in 230L reactors: 1.67%
chytrids; 6 ppt, 7 d
  % Chytrid infection in 230L reactors: 5.00%
chytrids; 6 ppt, 8 d
  % Chytrid infection in 230L reactors: 3.33%
chytrids; 6 ppt, 9 d
  % Chytrid infection in 230L reactors: 0.00%
chytrids; 6 ppt, 10 d
  % Chytrid infection in 230L reactors: 1.67%
chytrids; 6 ppt, 11 d
  % Chytrid infection in 230L reactors: 0.00%
chytrids; 6 ppt, 12 d
  % Chytrid infection in 230L reactors: 15.00%
chytrids; 7 ppt, 2 d
  % Chytrid infection in 230L reactors: 3.33%
chytrids; 7 ppt, 3 d
  % Chytrid infection in 230L reactors: 0.00%
chytrids; 7 ppt, 4 d
  % Chytrid infection in 230L reactors: 0.00%
chytrids; 7 ppt, 5 d
  % Chytrid infection in 230L reactors: 1.67%
chytrids; 7 ppt, 6 d
  % Chytrid infection in 230L reactors: 0.00%
chytrids; 7 ppt, 7 d
  % Chytrid infection in 230L reactors: 5.00%
chytrids; 7 ppt, 8 d
  % Chytrid infection in 230L reactors: 1.67%
chytrids; 7 ppt, 9 d
  % Chytrid infection in 230L reactors: 3.33%
chytrids; 7 ppt, 10 d
  % Chytrid infection in 230L reactors: 5.00%
chytrids; 7 ppt, 11 d
  % Chytrid infection in 230L reactors: 0.00%
chytrids; 7 ppt, 12 d
  % Chytrid infection in 230L reactors: 3.33%
chytrids; 8 ppt, 2 d
  % Chytrid infection in 230L reactors: 0.00%
chytrids; 8 ppt, 3 d
  % Chytrid infection in 230L reactors: 0.00%
chytrids; 8 ppt, 4 d
  % Chytrid infection in 230L reactors: 0.00%
chytrids; 8 ppt, 5 d
  % Chytrid infection in 230L reactors: 1.67%
chytrids; 8 ppt, 6 d
  % Chytrid infection in 230L reactors: 0.00%
chytrids; 8 ppt, 7 d
  % Chytrid infection in 230L reactors: 0.00%
chytrids; 8 ppt, 8 d
  % Chytrid infection in 230L reactors: 0.00%
chytrids; 8 ppt, 9 d
  % Chytrid infection in 230L reactors: 0.00%
chytrids; 8 ppt, 10 d
  % Chytrid infection in 230L reactors: 1.67%
chytrids; 8 ppt, 11 d
  % Chytrid infection in 230L reactors: 1.67%
chytrids; 8 ppt, 12 d
  % Chytrid infection in 230L reactors: 3.33%
chytrids; 10 ppt, 2 d
  % Chytrid infection in 230L reactors: 0.00%
chytrids; 10 ppt, 3 d
  % Chytrid infection in 230L reactors: 0.00%
chytrids; 10 ppt, 4 d
  % Chytrid infection in 230L reactors: 1.67%
chytrids; 10 ppt, 5 d
  % Chytrid infection in 230L reactors: 0.00%
chytrids; 10 ppt, 6 d
  % Chytrid infection in 230L reactors: 0.00%
chytrids; 10 ppt, 7 d
  % Chytrid infection in 230L reactors: 0.00%
chytrids; 10 ppt, 8 d
  % Chytrid infection in 230L reactors: 0.00%
chytrids; 10 ppt, 9 d
  % Chytrid infection in 230L reactors: 1.67%
chytrids; 10 ppt, 10 d
  % Chytrid infection in 230L reactors: 0.00%
chytrids; 10 ppt, 11 d
  % Chytrid infection in 230L reactors: 6.67%
chytrids; 10 ppt, 12 d
  % Chytrid infection in 230L reactors: 3.33%
chytrids; 18 ppt, 2 d
  % Chytrid infection in 230L reactors: 0.00%
chytrids; 18 ppt, 3 d
  % Chytrid infection in 230L reactors: 0.00%
chytrids; 18 ppt, 4 d
  % Chytrid infection in 230L reactors: 0.00%
chytrids; 18 ppt, 5 d
  % Chytrid infection in 230L reactors: 3.33%
chytrids; 18 ppt, 6 d
  % Chytrid infection in 230L reactors: 0.00%
chytrids; 18 ppt, 7 d
  % Chytrid infection in 230L reactors: 0.00%
chytrids; 18 ppt, 8 d
  % Chytrid infection in 230L reactors: 1.67%
chytrids; 18 ppt, 9 d
  % Chytrid infection in 230L reactors: 3.33%
chytrids; 18 ppt, 10 d
  % Chytrid infection in 230L reactors: 0.00%
chytrids; 18 ppt, 11 d
  % Chytrid infection in 230L reactors: 1.67%
chytrids; 18 ppt, 12 d
  % Chytrid infection in 230L reactors: 1.67%
chytrids; treatments at 7 ppt and above in 230 L reactors
  chytrid infection: 5-10%
Pure chytrid culture; Example 13, 20 ppt, after 1 hour
  microscope observation of pure chytrid culture: clumped sporangia and zoospores
Pure chytrid culture; Example 13, 20 ppt, after 24 hours
  microscope observation of pure chytrid culture: Wilting sporangia and no zoospores
Pure chytrid culture; Example 13, 20 ppt, after 48 hours
  microscope observation of pure chytrid culture: bacteria with shriveled zoospores and sporangia
Pure chytrid culture; Example 13, 20 ppt, after 72 hours
  microscope observation of pure chytrid culture: no zoospores or sporangia
Pure chytrid culture; Example 14, 5 ppt, after 1 hour
  microscope observation of pure chytrid culture: a less dense mass of zoospores with some being motile but sluggish
Pure chytrid culture; Example 14, 5 ppt, after 4.5 hours
  microscope observation of pure chytrid culture: A mix of non-motile and motile zoospores
Pure chytrid culture; Example 14, 10 ppt, after 1 hour
  microscope observation of pure chytrid culture: a mass of zoospores at the same density as the 5 ppt treatment but with all being non-motile
Pure chytrid culture; Example 14, 10 ppt, after 4.5 hours
  microscope observation of pure chytrid culture: Non-motile zoospores only
Pure chytrid culture; Example 14, 20 ppt, after 1 hour
  microscope observation of pure chytrid culture: a mass of zoospores less dense than mass of the 5 and 10 ppt treatments but with all being non-motile
Pure chytrid culture; Example 14, 20 ppt, after 4.5 hours
  microscope observation of pure chytrid culture: Non-motile zoospores only
